In patent US20240408169A1 (priority 2023, published 2024):
Where two headings read alike, the source gives them in different places. *1 amine or outer side, *2 acyl side, *3 side chain or, on linkers, in order; H or OH if unused. Where a SMILES comes first, the peptide text is derived from it. Bridges are numbered along the chain shown (N, C = ends). [ ]: non-standard residue; d: D form. The star is where a group is joined. NMePhe(2-(4-MorPh),5-Cl) = CN[C@@H](Cc1cc(Cl)ccc1-c1ccc(N2CCOCC2)cc1)C(=O)O; X57 = CC(C)C(=O)N1C2C=C(c3ccc(Cl)cc3C[C@@H](C(=O)[*:2])N(C)[*:1])CC1CC2; X61 = Cc1nc2c(F)cc(-c3ccc(Cl)cc3C[C@@H](C(=O)[*:2])N(C)[*:1])cc2n1C(C)C; X12 = CN1CCN(c2ccc(-c3ccc(F)cc3C[C@@H](C(=O)[*:2])N(C)[*:1])cc2)CC1; X37 = CN1CCN(c2ccc(-c3ccc(F)cc3C[C@@H](C(=O)[*:2])N(C)[*:1])cn2)CC1; X8 = CN1CCN(C2CC=C(c3ccc(Cl)cc3C[C@@H](C(=O)[*:2])N(C)[*:1])CC2)CC1; X49 = CN1CCc2ccc(-c3ccc(Cl)cc3C[C@@H](C(=O)[*:2])N(C)[*:1])cc2C1; X113 = Cc1cc(-c2ccc(Cl)cc2C[C@@H](C(=O)[*:2])N(C)[*:1])n(C)n1; X60 = CN([C@@H](Cc1cc(Cl)ccc1-c1cnn2ccncc12)C(=O)[*:2])[*:1]; NMehhhLys(Me) = CN([C@@H](CCCCCCCN(C)[*:3])C(=O)[*:2])[*:1]; X22 = CN([C@@H](Cc1cc(Cl)ccc1-c1cnn(C)c1)C(=O)[*:2])[*:1]; X104 = CN([C@@H](Cc1cc(Cl)ccc1C1=CCOCC1)C(=O)[*:2])[*:1]; NMe(hhhLys) = CN([C@@H](CCCCCCCN[*:3])C(=O)[*:2])[*:1]; X28 = CN([C@@H](Cc1cc(Cl)cnc1OC1CCC1)C(=O)[*:2])[*:1]; Cyclobutanecarbonyl(1-CF3) = O=C(C1(C(F)(F)F)CCC1)*; cBuCO(3,3-F2-1-CF3) = O=C(C1(C(F)(F)F)CC(F)(F)C1)*; Pro(trans-4-F) = O=C(O)[C@@H]1C[C@@H](F)CN1; X27 = O=C([C@]1(C(F)(F)F)CCCCO1)*; Nva(5-OH) = N[C@@H](CCCO)C(=O)O; Gly(cPr) = N[C@H](C(=O)O)C1CC1

Experiments:
CyclinA2/CDK2 = molecular target: T1, CyclinA2/CDK2 (Homo sapiens, UniProt P20248); experiment: Fluorescence Polarization (FP) competitive binding assay, Cyclin A2/Cdk2;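 also: plates equilibrated two hours at room temperature before polarization reading, IC50 fitted from eight-concentration compound titration curves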
T1 construct: purchased CRELUX Protein Services

WI-38 cells = experiment: MTT proliferation assay, WI-38; format: cell-based; conditions: 3 days compound exposure, 1:3 serial dilution starting at 10 μM;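 also: Eight- or ten-point dilution series, with exposure length chosen to span about three to four cell doublings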
OVCAR3 cells = experiment: MTT proliferation assay, OVCAR3; format: cell-based; conditions: 5 days compound exposure, 1:3 serial dilution starting at 10 μM;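 also: compound given as an 8- or 10-point series, one day after plating, with exposure covering roughly 3-4 cell doublings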
CyclinE1/CDK2 = molecular target: T2, CyclinE1/CDK2 (Homo sapiens, UniProt P24864); experiment: Fluorescence Polarization (FP) competitive binding assay, Cyclin E1/Cdk2;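 also: readings taken after two-hour equilibration at room temperature in HEPES buffer with NaCl, DTT, NP-40 and BSA, IC50 fitted from eight-concentration serial dilution series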
T2 construct: purchased Eurofins, discovery 14-475

NCI-H1048 cells = experiment: MTT proliferation assay, NCI-H1048; format: cell-based; conditions: 5 days compound exposure, 1:3 serial dilution starting at 10 μM;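 also: Dose-response in 96-well plates over 8 or 10 concentration points, with exposure spanning 3-4 cell doublings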
CyclinB1/CDK1 = molecular target: T3, CyclinB1/CDK1 (Homo sapiens, UniProt P14635); experiment: Fluorescence Polarization (FP) competitive binding assay, Cyclin B1/Cdk1;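 also: fluorescence polarization read after equilibration at room temperature, with IC50 taken from serially diluted dose-response curves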
T3 construct: purchased Eurofins, discovery 14-450

[1] = 8 nM Cyclin A2/Cdk2, 2 nM FAM probe, average of 2-3 independent experiments, read-out: Cyclin A FP IC50
[2] = 10 nM Cyclin E1/Cdk2, 2 nM FAM probe, average of 2-3 independent experiments, read-out: Cyclin E FP IC50
[3] = 10 nM Cyclin B1/Cdk1, 2 nM FAM probe; average of 2-3 independent experiments; read-out: Cyclin B FP IC50
[4] = read-out: Cyclin B FP IC50; 10 nM Cyclin B1/Cdk1, 2 nM FAM probe; average of 2-3 independent experiments

| SMILES | IC50 (CyclinA2/CDK2; [1]) [nM] | GI50 (WI-38 cells) [nM] | GI50 (OVCAR3 cells) [nM] | IC50 (CyclinE1/CDK2; [2]) [nM] | GI50 (NCI-H1048 cells) [nM] | IC50 (CyclinB1/CDK1; [3]) [nM] | IC50 (CyclinA2/CDK2) [nM] | IC50 (CyclinE1/CDK2) [nM] | IC50 (CyclinB1/CDK1; [4]) [nM] |
| --- | --- | --- | --- | --- | --- | --- | --- | --- | --- |
| CC(C)C[C@@H]1NC(=O)[C@@H](N(C)C(=O)[C@H](CCCO)NC(=O)[C@@H]2C[C@@H](F)CN2C(=O)C2(C(F)(F)F)CC(F)(F)C2)CCCCCCCN(C)C(=O)[C@H](Cc2cc(Cl)ccc2-c2ccc(N3CCOCC3)cc2)N(C)C1=O [Example 421] ({cBuCO(3,3-F2-1-CF3)}-[Pro(trans-4-F)][Nva(5-OH)][NMehhhLys(Me)]L[NMePhe(2-(4-MorPh),5-Cl)]; lactam 3-C) | 20 | 19100 | 10 | 510 | 10 | 20 |  |  |  |
| CC(C)C[C@@H]1NC(=O)[C@@H](N(C)C(=O)[C@@H](NC(=O)[C@@H]2C[C@@H](F)CN2C(=O)C2(C(F)(F)F)CC(F)(F)C2)C2CC2)CCCCCCCN(C)C(=O)[C@H](Cc2cc(F)ccc2-c2ccc(N3CCN(C)CC3)cc2)N(C)C1=O [Example 353] ({cBuCO(3,3-F2-1-CF3)}-[Pro(trans-4-F)][Gly(cPr)][NMehhhLys(Me)]L[X12]; lactam 3-C) | 20 | 3490 | 10 | 220 | 10 | 20 |  |  |  |
| CC(C)C[C@@H]1NC(=O)[C@@H](N(C)C(=O)[C@@H](NC(=O)[C@@H]2C[C@@H](F)CN2C(=O)C2(C(F)(F)F)CC(F)(F)C2)C2CC2)CCCCCCCN(C)C(=O)[C@H](Cc2cc(Cl)ccc2C2=CCC(N3CCN(C)CC3)CC2)N(C)C1=O (stereo partly drawn) [Example 376] ({cBuCO(3,3-F2-1-CF3)}-[Pro(trans-4-F)][Gly(cPr)][NMehhhLys(Me)]L[X8]; lactam 3-C) | 20 | 3450 | 10 | 1330 | 10 | 20 |  |  |  |
| [2H]C([2H])([2H])n1cc(-c2ccc(Cl)cc2C[C@H]2C(=O)N(C)CCCCCCC[C@H](N(C)C(=O)[C@@H](NC(=O)[C@@H]3C[C@@H](F)CN3C(=O)C3(C(F)(F)F)CC(F)(F)C3)C3CC3)C(=O)N[C@@H](CC(C)C)C(=O)N2C)cn1 [Example 239] | 20 | 14300 | 20 | 420 | 20 | 20 |  |  |  |
| CC(=O)N1[C@H]2CC[C@@H]1C=C(c1ccc(Cl)cc1C[C@H]1C(=O)N(C)CCCCCCC[C@H](N(C)C(=O)[C@@H](NC(=O)[C@@H]3C[C@@H](F)CN3C(=O)C3(C(F)(F)F)CC(F)(F)C3)C3CC3)C(=O)N[C@@H](CC(C)C)C(=O)N1C)C2 (single isomer, unassigned) [Example 57-P1] | 20 | 13800 | 10 | 1410 | 10 | 20 |  |  |  |
| CC(C)C[C@@H]1NC(=O)[C@@H](N(C)C(=O)[C@@H](NC(=O)[C@@H]2C[C@@H](F)CN2C(=O)[C@]2(C(F)(F)F)CCCCO2)C2CC2)CCCCCCCN(C)C(=O)[C@H](Cc2cc(Cl)ccc2-c2cnn(C)c2)N(C)C1=O [Example 183] (X27-[Pro(trans-4-F)][Gly(cPr)][NMehhhLys(Me)]L[X22]; lactam 3-C) | 30 | 5070 | 20 | 280 | 10 | 20 |  |  |  |
| CCN(C(=O)[C@@H](NC(=O)[C@@H]1C[C@@H](F)CN1C(=O)[C@@]1(C(F)(F)F)CCCCO1)C1CC1)[C@H]1CCCCCCCN(C)C(=O)[C@H](Cc2cc(Cl)cnc2OC2CC2)N(C)C(=O)[C@H](CC(C)C)NC1=O [Example 221] |  | 16600 | 30 |  | 20 |  | 60 | 180 | 20 |
| Cc1cc(-c2ccc(Cl)cc2C[C@H]2C(=O)N(C)CCCCCCC[C@H](N(C)C(=O)[C@@H](NC(=O)[C@@H]3C[C@@H](F)CN3C(=O)C3(C(F)(F)F)CC(F)(F)C3)C3CC3)C(=O)N[C@@H](CC(C)C)C(=O)N2C)n(C)n1 [Example 235] ({cBuCO(3,3-F2-1-CF3)}-[Pro(trans-4-F)][Gly(cPr)][NMehhhLys(Me)]L[X113]; lactam 3-C) |  | 13200 | 90 |  | 100 |  | 140 | 6080 | 20 |
| CC(C)C[C@@H]1NC(=O)[C@@H](N(C)C(=O)[C@@H](NC(=O)[C@@H]2C[C@@H](F)CN2C(=O)C2(C(F)(F)F)CC(F)(F)C2)C2CC2)CCCCCCCN(C)C(=O)[C@H](Cc2cc(Cl)ccc2-c2ccc3c(c2)CN(C)CC3)N(C)C1=O [Example 406] ({cBuCO(3,3-F2-1-CF3)}-[Pro(trans-4-F)][Gly(cPr)][NMehhhLys(Me)]L[X49]; lactam 3-C) | 20 | 3350 | 40 | 1780 | 20 | 20 |  |  |  |
| CC(C)C[C@@H]1NC(=O)[C@@H](N(C)C(=O)[C@@H](NC(=O)[C@@H]2C[C@@H](F)CN2C(=O)C2(C(F)(F)F)CC(F)(F)C2)C2CC2)CCCCCCCNC(=O)[C@H](Cc2cc(Cl)ccc2C2=CCOCC2)N(C)C1=O [Example 21] ({cBuCO(3,3-F2-1-CF3)}-[Pro(trans-4-F)][Gly(cPr)][NMe(hhhLys)]L[X104]; lactam 3-C) | 20 | 6850 | 20 | 1130 | 10 | 20 |  |  |  |
| CC(C)C[C@@H]1NC(=O)[C@@H](N(C)C(=O)[C@@H](NC(=O)[C@@H]2C[C@@H](F)CN2C(=O)C2(C(F)(F)F)CC(F)(F)C2)C2CC2)CCCCCCCN(C)C(=O)[C@H](Cc2cc(Cl)ccc2-c2cnn3ccncc23)N(C)C1=O [Example 305] ({cBuCO(3,3-F2-1-CF3)}-[Pro(trans-4-F)][Gly(cPr)][NMehhhLys(Me)]L[X60]; lactam 3-C) | 50 | 19200 | 20 | 1750 | 10 | 20 |  |  |  |
| CCOC(=O)N1CC=C(c2ccc(Cl)cc2C[C@H]2C(=O)NCCCCC=CC[C@H](N(C)C(=O)[C@@H](NC(=O)[C@@H]3C[C@@H](F)CN3C(=O)C3(C(F)(F)F)CC(F)(F)C3)C3CC3)C(=O)N[C@@H](CC(C)C)C(=O)N2C)CC1 [Example 53, Ethyl 4-(4-chloro-2-(((3S,6S,9S)-9-((S)-2-cyclopropyl-2-((2S,4R)-1-(3,3-difluoro-1-(trifluoromethyl)cyclobutane-1-carbonyl)-4-fluoropyrrolidine-2-carboxamido)-N-methylacetamido)-6-isobutyl-4-methyl-2,5,8-trioxo-1,4,7-triazacyclohexadec-11-en-3-yl)methyl)phenyl)-3,6-dihydropyridine-1 (2H)-carboxylate] | 90 | 4500 | 180 | 12400 | 180 | 20 |  |  |  |
| CC(C)C[C@@H]1NC(=O)[C@@H](N(C)C(=O)[C@@H](NC(=O)[C@@H]2C[C@@H](F)CN2C(=O)C2(C(F)(F)F)CC(F)(F)C2)C2CC2)CCCCCCCN(C)C(=O)[C@H](Cc2cc(F)ccc2-c2ccc(N3CCN(C)CC3)nc2)N(C)C1=O [Example 391] ({cBuCO(3,3-F2-1-CF3)}-[Pro(trans-4-F)][Gly(cPr)][NMehhhLys(Me)]L[X37]; lactam 3-C) | 30 | 7820 | 10 | 610 | 10 | 20 |  |  |  |
| CC(C)C[C@@H]1NC(=O)[C@@H](N(C)C(=O)[C@@H](NC(=O)[C@@H]2C[C@@H](F)CN2C(=O)C2(C(F)(F)F)CC(F)(F)C2)C2CC2)CC=CCCCCNC(=O)[C@H](Cc2cc(Cl)ccc2-c2cnn(C3COC3)c2)N(C)C1=O [Example 27] | 90 | 11400 | 370 | 1900 | 90 | 20 |  |  |  |
| CC(C)C[C@@H]1NC(=O)[C@@H](N(C)C(=O)[C@@H](NC(=O)[C@@H]2C[C@@H](F)CN2C(=O)C2(C(F)(F)F)CC(F)(F)C2)C2CC2)CCCCCCCNC(=O)[C@H](Cc2cc(Cl)ccc2C2=CC3CCC(C2)N3C(=O)C(C)C)N(C)C1=O (stereo partly drawn) [Example 193] ({cBuCO(3,3-F2-1-CF3)}-[Pro(trans-4-F)][Gly(cPr)][NMe(hhhLys)]L[X57]; lactam 3-C) | 20 | 7580 | 20 | 710 | 10 | 20 |  |  |  |
| CC(C)C[C@@H]1NC(=O)[C@@H](N(C)C(=O)[C@@H](NC(=O)[C@@H]2C[C@@H](F)CN2C(=O)C2(C(F)(F)F)CCC2)C2CC2)CCCCCCCN(C)C(=O)[C@H](Cc2cc(Cl)cnc2OC2CCC2)N(C)C1=O [Example 139] ({Cyclobutanecarbonyl(1-CF3)}-[Pro(trans-4-F)][Gly(cPr)][NMehhhLys(Me)]L[X28]; lactam 3-C) | 20 | 6420 | 150 | 100 | 70 | 20 |  |  |  |
| Cc1nc2c(F)cc(-c3ccc(Cl)cc3C[C@H]3C(=O)N(C)CCCCCCC[C@H](N(C)C(=O)[C@@H](NC(=O)[C@@H]4C[C@@H](F)CN4C(=O)C4(C(F)(F)F)CC(F)(F)C4)C4CC4)C(=O)N[C@@H](CC(C)C)C(=O)N3C)cc2n1C(C)C [Example 231] ({cBuCO(3,3-F2-1-CF3)}-[Pro(trans-4-F)][Gly(cPr)][NMehhhLys(Me)]L[X61]; lactam 3-C) |  | 13400 | 40 |  | 20 |  | 60 | 2940 | 20 |
